Assay results: patent publication US8389527B2, “Substituted imidazopyridazines useful as kinase inhibitors” (Bristol-Myers Squibb Company, priority 2008, dated 2013)

What was measured:
recombinant CK2A1 = biological target: T1, recombinant CK2A1 (Homo sapiens, UniProt P68400); assay: CK2 kinase assay (CK2A1), [γ-33P]ATP filter-binding; format: biochemical; details: recombinant CK2A1 10 nM, ATP 25 μM, 10 μM peptide substrate, 30° C. 1 h
T1 construct: purchased Invitrogen
Protocol: (§1) The effectiveness of compounds of the present invention as inhibitors of protein kinases can be readily tested by assays known to those skilled in the art. For example, in vitro protein kinase assays may be conducted with a relevant purified protein kinase and an appropriate synthetic substrate to determine the inhibitory activities of the compounds. […] Reaction mixtures were incubated at 30° C. for 1 h, and reaction products were captured by binding to phosphocellulose (P81) filter plates. Incorporation of radioactive phosphate into the peptide substrate was determined by liquid scintillation counting. The potency of compounds in inhibiting CK2 is expressed as IC50, defined as the concentrations of compounds required to inhibit the enzymatic activity by 50%.

recombinant CK2A2 = biological target: T2, recombinant CK2A2 (Homo sapiens, UniProt P19784); assay: CK2 kinase assay (CK2A2), [γ-33P]ATP filter-binding; format: biochemical; details: recombinant CK2A2 5 nM, ATP 5 μM, 10 μM peptide substrate, 30° C. 1 h
T2 construct: purchased Upstate Biotechnology
T2 sequence (P19784 whole entry): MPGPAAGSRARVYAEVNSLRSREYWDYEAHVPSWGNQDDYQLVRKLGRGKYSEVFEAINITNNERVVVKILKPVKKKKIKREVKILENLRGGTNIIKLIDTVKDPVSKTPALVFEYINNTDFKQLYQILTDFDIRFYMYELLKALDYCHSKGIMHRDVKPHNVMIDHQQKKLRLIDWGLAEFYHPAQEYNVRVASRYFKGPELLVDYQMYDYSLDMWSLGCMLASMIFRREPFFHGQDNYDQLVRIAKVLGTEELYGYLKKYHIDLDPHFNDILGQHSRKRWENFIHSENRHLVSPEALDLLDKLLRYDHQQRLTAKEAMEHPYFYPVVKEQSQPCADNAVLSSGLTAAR
Protocol: as §1

HCT116 = assay: Cell proliferation inhibition assay (MTT, CellTiter96); format: cell-based; details: Homo sapiens, HCT-116; HCT116 cells, 72 h with compound, MTT readout
Protocol: B. Cell Proliferation Inhibition Assay
Compounds were evaluated for their ability to inhibit cell proliferation, using an assay that measures mitochondrial metabolic activity, that is directly correlated with cell numbers. Cells were plated at 2000 cells/well in 96-well plates and were cultured for 24 h in RPMI-1640 supplemented with 2% fetal bovine serum, before test compounds were added. Compounds were diluted in culture medium such that the final concentration of dimethyl sulfoxide never exceeded 1%. Following the addition of compounds, the cells were cultured for an additional 72 h before cell viability was determined by measuring the conversion of 3-(4,5-dimethylthiazol-2-yl)-2,5-diphenyltetrazolium bromide (MTT) dye using the CellTiter96 kit (Promega).

T1 sequence (P68400 whole entry): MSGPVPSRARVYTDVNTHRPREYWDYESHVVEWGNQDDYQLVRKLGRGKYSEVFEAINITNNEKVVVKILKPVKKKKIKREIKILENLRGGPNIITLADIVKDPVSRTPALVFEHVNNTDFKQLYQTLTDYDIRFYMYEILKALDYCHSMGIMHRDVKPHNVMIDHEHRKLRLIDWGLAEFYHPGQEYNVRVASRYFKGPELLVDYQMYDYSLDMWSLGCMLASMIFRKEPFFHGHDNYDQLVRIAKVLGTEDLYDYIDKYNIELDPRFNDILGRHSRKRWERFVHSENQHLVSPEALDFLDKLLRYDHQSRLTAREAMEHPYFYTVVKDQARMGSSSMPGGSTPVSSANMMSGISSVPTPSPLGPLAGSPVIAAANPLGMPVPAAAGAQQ

Compound | IC50 (recombinant CK2A1) [nM] | IC50 (recombinant CK2A2) [nM] | IC50 (HCT116) [nM]
N#CCC(=O)N[C@H]1CC[C@H](Nc2cc(Nc3nccs3)c3ncc(C(=O)Nc4ccnc(Cl)c4)n3n2)CC1 [Example 562, N-(2-chloro-4-pyridinyl)-6-((trans-4-((cyanoacetyl)amino)cyclohexyl)amino)-8-(1,3-thiazol-2-ylamino)imidazo [1,2-b]pyridazine-3-carboxamide] | 9.7 | 1.2 | 60
CC(=O)Nc1cccc(NC(=O)c2cnc3c(NC4CC4)cc(N[C@H]4CC[C@H](N)CC4)nn23)c1 [Example 83, N-(3-acetamidophenyl)-6-((trans)-4-aminocyclohexylamino)-8-(cyclopropylamino)imidazo[1,2-b]pyridazine-3-carboxamide] | 12300 | 4390 | > 1000
N[C@H]1CC[C@H](Nc2cc(N[C@H]3C[C@@H](CO)C3)c3ncc(C(=O)Nc4ccncc4F)n3n2)CC1 [Example 476, 6-((trans-4-aminocyclohexyl)amino)-N-(3-fluoro-4-pyridinyl)-8-((cis-3-(hydroxymethyl)cyclobutyl)amino) imidazo[l,2-b]pyridazine-3-carboxamide] | 43 | 46 | 2310
N[C@H]1CC[C@H](Nc2cc(Nc3ncccc3O)c3ncc(C(=O)Nc4ccncc4)n3n2)CC1 [Example 378, 6-((trans-4-aminocyclohexyl)amino)-8-((3-hydroxy-2-pyridinyl)amino)-N-4-pyridinyl-imidazo[1,2-b]pyridazine-3-carboxamide] | 205 | 290 | > 1000
N[C@H]1CC[C@H](Nc2cc(NC3CCC3)c3ncc(C(=O)Nc4ccncc4F)n3n2)CC1 [Example 469, 6-((trans-4-aminocyclohexyl)amino)-8-(cyclobutylamino)-N-(3-fluoro-4-pyridinyl)imidazo [1,2-b]pyridazine-3-carboxamide] | 19 | 5 | 50
Cc1cc(Nc2cc(N[C@H]3CC[C@H](NC(=O)CC#N)CC3)nn3c(C(=O)Nc4ccnc(Cl)c4)cnc23)no1 [Example 560, N-(2-chloro-4-pyridinyl)-6-((trans-4-((cyanoacetyl)amino)cyclohexyl)amino)-8-((5-methyl-3-isoxazolyl)amino) imidazo[1,2-b]pyridazine-3-carboxamide] | 12.5 | 0.8 | 870
O=C(Nc1ccnc(Cl)c1)c1cnc2c(Nc3ccon3)cc(N[C@H]3CC[C@H](O)CC3)nn12 [Example 549, N-(2-chloro-4-pyridinyl)-6-((trans-4-hydroxycyclohexyl)amino)-8-(3-isoxazolylamino) imidazo[1,2-b]pyridazine-3-carboxamide] | 26.3 | 0.03 | 20

Other lines, results leading:

IC50 (recombinant CK2A1) [nM] | IC50 (recombinant CK2A2) [nM] | IC50 (HCT116) [nM] | Compound
5.5 | 1 | 80 | CC(C)n1ccc(Nc2cc(N[C@H]3CC[C@H](NC(=O)CC#N)CC3)nn3c(C(=O)Nc4ccnc(Cl)c4)cnc23)n1 [Example 559, N-(2-chloro-4-pyridinyl)-6-((trans-4-((cyanoacetyl)amino)cyclohexyl)amino)-8-((1-isopropyl-1H-pyrazol-3-yl)amino)imidazo[1,2-b] pyridazine-3-carboxamide]
331 | 42 | 340 | CC(C)CN[C@H]1CC[C@H](Nc2cc(NC3CC3)c3ncc(C(=O)Nc4ccnc(Cl)c4)n3n2)CC1 [Example 538, N-(2-chloro-4-pyridinyl)-8-(cyclopropylamino)-6-((trans-4-(isobutylamino)cyclohexyl)amino)imidazo [1,2-b]pyridazine-3-carboxamide]
199 | 70 | 340 | NCCCC(=O)N[C@H]1CC[C@H](Nc2cc(NC3CC3)c3ncc(C(=O)Nc4ccnc(F)c4)n3n2)CC1 [Example 143, 6-((trans-4-((4-aminobutanoyl)amino)cyclohexyl)amino)-8-(cyclopropylamino)-N-(2-fluoro-4-pyridinyl)imidazo [1,2-b]pyridazine-3-carboxamide]
428 | 97 | 890 | O=C(Nc1ccnc(Cl)c1)c1cnc2c(NC3CC3)cc(NC3CCSCC3)nn12 [Example 571, N-(2-chloro-4-pyridinyl)-8-(cyclopropylamino)-6-(tetrahydro-2H-thiopyran-4-ylamino)imidazo[1,2-b]pyridazine-3-carboxamide]
42 | 17 | 170 | O=C(Nc1ccnc(F)c1)c1cnc2c(NC3CC3)cc(N[C@H]3CC[C@H](O)CC3)nn12 [Example 13, 8-(cyclopropylamino)-N-(2-fluoro-4-pyridinyl)-6-((trans-4-hydroxycyclohexyl)amino)imidazo[1,2-b]pyridazine-3-carboxamide]
22.8 | 2.1 | > 2500 | CC(C)CC(=O)N[C@H]1CC[C@H](Nc2cc(NC3CC3)c3ncc(C(=O)Nc4ccnc(Cl)c4)n3n2)CC1 [Example 164, N-(2-chloro-4-pyridinyl)-8-(cyclopropylamino)-6-((trans-4-((3-methylbutanoyl)amino)cyclohexyl)amino) imidazo[1,2-b]pyridazine-3-carboxamide]
247 | 72 | 430 | O=C(Nc1ccnc(F)c1)c1cnc2c(NC3CC3)cc(N[C@H]3CC[C@H](N4CCOCC4)CC3)nn12 [Example 27, 8-(cyclopropylamino)-N-(2-fluoropyridin-4-yl)-6-((trans)-4-morpholinocyclohexylamino)imidazo[1,2-b]pyridazine-3-carboxamide]
34.1 | 2.1 | 280 | CNC(C)(C)C(=O)N[C@H]1CC[C@H](Nc2cc(NC3CC3)c3ncc(C(=O)Nc4ccnc(Cl)c4)n3n2)CC1 [Example 159, N-(2-chloro-4-pyridinyl)-8-(cyclopropylamino)-6-((trans-4-((N,2-dimethylalanyl)amino)cyclohexyl)amino) imidazo[1,2-b]pyridazine-3-carboxamide]
1.9 | 0.8 | 400 | CN(C)[C@H]1CCN(C(=O)N[C@H]2CC[C@H](Nc3cc(NC4CC4)c4ncc(C(=O)Nc5ccnc(Cl)c5)n4n3)CC2)C1 [Example 272, N-(2-chloro-4-pyridinyl)-8-(cyclopropylamino)-6-((trans-4-((((3S)-3-(dimethylamino)-1-pyrrolidinyl)carbonyl)amino)cyclohexyl)amino) imidazo[1,2-b]pyridazine-3-carboxamide]
